Laboratory results: PMC6934184, “Selective DNA-PKcs inhibition extends the therapeutic index of localized radiotherapy and chemotherapy” (The Journal of Clinical Investigation, 2019)

Biological target: T1, WEE1 (Homo sapiens, UniProt P30291)
T1 construct: purchased Thermo Fisher Scientific (Life Technologies) SelectScreen
Experiment: SelectScreen LanthaScreen
Type: binding
Conditions: read-out: % displacement
In short: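 Percent values come from Thermo SelectScreen profiling of NU5455, combining activity and binding assays. CSF1R was run in Z'LYTE format at Km app ATP, and CAMK1 in Adapta format with ATP listed at 10.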

T1 sequence (P30291 whole entry): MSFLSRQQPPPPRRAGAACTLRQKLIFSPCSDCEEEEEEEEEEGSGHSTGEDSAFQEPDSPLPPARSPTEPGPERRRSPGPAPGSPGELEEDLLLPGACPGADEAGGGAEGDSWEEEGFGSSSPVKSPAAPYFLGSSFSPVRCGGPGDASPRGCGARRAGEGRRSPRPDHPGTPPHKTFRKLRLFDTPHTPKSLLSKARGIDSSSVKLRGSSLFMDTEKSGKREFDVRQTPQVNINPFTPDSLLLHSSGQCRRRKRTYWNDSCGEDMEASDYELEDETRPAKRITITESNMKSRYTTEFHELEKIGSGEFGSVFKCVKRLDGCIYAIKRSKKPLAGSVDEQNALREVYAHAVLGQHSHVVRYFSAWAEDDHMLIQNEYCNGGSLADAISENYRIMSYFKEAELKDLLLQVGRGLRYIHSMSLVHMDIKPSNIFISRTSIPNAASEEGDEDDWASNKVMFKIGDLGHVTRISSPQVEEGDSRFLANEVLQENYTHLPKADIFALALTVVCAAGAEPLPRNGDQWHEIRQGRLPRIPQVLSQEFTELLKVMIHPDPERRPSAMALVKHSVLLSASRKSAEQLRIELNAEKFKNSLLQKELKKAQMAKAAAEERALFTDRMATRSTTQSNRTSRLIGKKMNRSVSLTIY

## CN(C(=O)CN1CCOCC1)c1ccc2sc3c(-c4cccc5c(=O)cc(N6CC7CCC(C6)O7)oc45)cccc3c2c1 [NU5455]
  inhibition at 1 µM: 18.2%
